Experimental data published in paper PMC5380267 (Medicine, 2017).

Experiments:
[1] = Chronic allograft nephropathy diagnosis in renal transplant patients (protocol biopsies, Banff 97); details: EVR co-administration
Description: Protocol biopsies were performed and graded according to the Banff 97 classification.[29]

[2] = MPA pharmacokinetics in renal transplant patients on MMF (plasma HPLC-UV, Bayesian estimation of AUC); type: in vivo, human; details: for AUC(0-t) / Cmax: human, plasma; for AUC(0-t): MPA AUC(0–12); for Patients with MPA AUC outside the therapeutic window range: range 30–60 h mg/L
Description: Anonymized medical records of 404 patients receiving immunosuppressant therapy after renal transplantation hospitalized at Limoges University Hospital (France) during the study period from 2011 to 2012 were reviewed. […] The patients were excluded if they received immunosuppression with other medicaments and underwent transplantation of other organs.
All patients received prednisolone orally by standard hospital practice.
According to the MMF daily dose, the study patients were allocated into the 3 study groups: the low MMF dose group received 1000 mg per day (28 patients); medium MMF dose group, 2000 mg per day (54 patients); and high MMF dose group, 3000 mg per day (18 patients).
Blood samples were collected in EDTA tubes at 20 minutes, 1 and 3 hours after the administration of MMF. Plasma was separated by centrifugation. […] Blood serum (500 μL), an internal standard (50 μL) (thiopental in methanol 1 g/L diluted with deproteinized water to 25 mg/L), and calibrators were acidified with hydrochloric acid and extracted with dichloromethane (5 mL). […] The organic fraction was then evaporated to dryness under a stream of nitrogen. The dry residue was reconstituted with 100-μL elution solvent (KH2PO4 buffer/acetonitrile [70/30 v/v] at pH = 2.6). Then, the sample (40 μL) was injected into the HPLC system with a steel column Nucleosil C18, 5 μm (250 × 4.6 mm, id) and with UV detection at 300 nm.

[3] = Low-dose MMF group, 1000 mg/day, EVR group

In the case of `CO[C@H]1C[C@@H]2CC[C@@H](C)[C@@](O)(O2)C(=O)C(=O)N2CCCC[C@H]2C(=O)O[C@H]([C@H](C)C[C@@H]2CC[C@@H](OCCO)[C@H](OC)C2)CC(=O)[C@H](C)/C=C(\C)[C@@H](O)[C@@H](OC)C(=O)[C@H](C)C[C@H](C)/C=C/C=C/C=C/1C` [EVR, everolimus], the “Chronic allograft nephropathy diagnosed, patients” value ([1]; high MMF dose group (2 of 4)) is reported as 50.0%, the “Chronic allograft nephropathy diagnosed, patients” value ([1]; in total) is reported as 64.7% and the “Chronic allograft nephropathy diagnosed, patients” value ([1]; low MMF dose group (7 of 9)) is reported as 77.8%. For the same molecule, the “Chronic allograft nephropathy diagnosed, patients” value ([1]; medium MMF dose group (2 of 4)) was 50.0%.

With `COc1c(C)c2c(c(O)c1C/C=C(\C)CCC(=O)O)C(=O)OC2` [MPA, mycophenolic acid] the “MPA AUC lower in low CsA dose group versus high CsA dose group” value ([2]; CsA 120–180 mg versus 240–300 mg) was “approximately 33%”, the “MPA C0, mean ± SD (range)” value ([2]; CsA + MMF group, all MMF doses (n = 83)) was 1.00 ± 0.47 (0.00–2.00) mg/L and the “MPA C0, mean ± SD (range)” value ([2]; EVR + MMF group, all MMF doses (n = 17)) was 2.58 ± 1.43 (0.68–4.98) mg/L. The “MPA C0, mean ± SD (range)” value ([2]; High-dose MMF group, 3000 mg/day, CsA group) was 1.29 ± 0.47 (1.00–2.00) mg/L, the “MPA C0, mean ± SD (range)” value ([2]; High-dose MMF group, 3000 mg/day, EVR group) was 3.19 ± 1.60 (1.41–4.89) mg/L and the “MPA C0, mean ± SD (range)” value ([2]; Low-dose MMF group, 1000 mg/day, CsA group) was 0.58 ± 0.51 (0.00–1.00) mg/L. For the same molecule, the “MPA AUC(0–12), mean ± SD (range)” value [2, 3] was 31.89 ± 8.43 (20.82–42.25) h mg/L, the “MPA C0, mean ± SD (range)” value [2, 3] was 1.61 ± 0.65 (0.68–2.24) mg/L and the “MPA C0, mean ± SD (range)” value ([2]; Medium-dose MMF group, 2000 mg/day, EVR group) was 4.17 ± 0.78 (3.12–4.98) mg/L. The AUC(0-t) ([2]; mean ± SD (range), CsA + MMF group, all MMF doses (n = 83)) was 37900 ± 14100 ng·h/mL, the AUC(0-t) ([2]; mean ± SD (range), EVR + MMF group, all MMF doses (n = 17)) was 47000 ± 21900 ng·h/mL and the AUC(0-t) ([2]; mean ± SD (range), High-dose MMF group, 3000 mg/day, CsA group) was 44600 ± 14000 ng·h/mL. The AUC(0-t) ([2]; mean ± SD (range), High-dose MMF group, 3000 mg/day, EVR group) was 59500 ± 18300 ng·h/mL, the AUC(0-t) ([2]; mean ± SD (range), Low-dose MMF group, 1000 mg/day, CsA group) was 30600 ± 12700 ng·h/mL and the AUC(0-t) ([2]; mean ± SD (range), Medium-dose MMF group, 2000 mg/day, CsA group) was 38700 ± 13700 ng·h/mL. The AUC(0-t) ([2]; mean ± SD (range), Medium-dose MMF group, 2000 mg/day, EVR group) was 68700 ± 22700 ng·h/mL, the AUC(0-t) ([2]; mean ± SD, CsA + MMF, MMF 1000 mg/day, CsA 120–180 mg/day) was 28100 ± 11000 ng·h/mL and the AUC(0-t) ([2]; mean ± SD, CsA + MMF, MMF 1000 mg/day, CsA 180–240 mg/day) was 40500 ± 11000 ng·h/mL. For the same molecule, the AUC(0-t) ([2]; mean ± SD, CsA + MMF, MMF 2000 mg/day, CsA 120–180 mg/day) was 28800 ± 11100 ng·h/mL, the AUC(0-t) ([2]; mean ± SD, CsA + MMF, MMF 2000 mg/day, CsA 180–240 mg/day) was 41800 ± 15600 ng·h/mL and the AUC(0-t) ([2]; mean ± SD, CsA + MMF, MMF 2000 mg/day, CsA 240–300 mg/day) was 43000 ± 6270 ng·h/mL. It also gave an AUC(0-t) ([2]; mean ± SD, CsA + MMF, MMF 3000 mg/day, CsA 120–180 mg/day) of 36200 ± 3700 ng·h/mL, an AUC(0-t) ([2]; mean ± SD, CsA + MMF, MMF 3000 mg/day, CsA 180–240 mg/day) of 43400 ± 13100 ng·h/mL and an AUC(0-t) ([2]; mean ± SD, CsA + MMF, MMF 3000 mg/day, CsA 240–300 mg/day) of 56800 ± 16800 ng·h/mL. The Cmax ([2]; MPA Cmax related to high-dose CsA, CsA >240 mg/day) was over 10000 ng/mL, the Cmax ([2]; MPA Cmax, mean ± SD (range), CsA + MMF group, all MMF doses (n = 83)) was 17600 ± 8510 ng/mL and the Cmax ([2]; MPA Cmax, mean ± SD (range), EVR + MMF group, all MMF doses (n = 17)) was 14300 ± 6380 ng/mL. The Cmax ([2]; MPA Cmax, mean ± SD (range), High-dose MMF group, 3000 mg/day, CsA group) was 21000 ± 7050 ng/mL, the Cmax ([2]; MPA Cmax, mean ± SD (range), Low-dose MMF group, 1000 mg/day, CsA group) was 15500 ± 8930 ng/mL and the Cmax ([2]; MPA Cmax, mean ± SD (range), Low-dose MMF group, 1000 mg/day, EVR group) was 10800 ± 4810 ng/mL. It also gave a Cmax ([2]; MPA Cmax, mean ± SD (range), Medium-dose MMF group, 2000 mg/day, CsA group) of 17500 ± 8580 ng/mL, a Cmax ([2]; MPA Cmax, mean ± SD (range), Medium-dose MMF group, 2000 mg/day, EVR group) of 17400 ± 7740 ng/mL and a Cmax ([2]; MPA Cmax, mean ± SD, CsA + MMF, MMF 1000 mg/day, CsA 120–180 mg/day) of 12100 ± 5590 ng/mL. For the same molecule, the Cmax ([2]; MPA Cmax, mean ± SD, CsA + MMF, MMF 1000 mg/day, CsA 180–240 mg/day) was 22800 ± 10800 ng/mL, the Cmax ([2]; MPA Cmax, mean ± SD, CsA + MMF, MMF 2000 mg/day, CsA 120–180 mg/day) was 13000 ± 6820 ng/mL and the Cmax ([2]; MPA Cmax, mean ± SD, CsA + MMF, MMF 2000 mg/day, CsA 180–240 mg/day) was 17000 ± 8020 ng/mL. It also gave a Cmax ([2]; MPA Cmax, mean ± SD, CsA + MMF, MMF 2000 mg/day, CsA 240–300 mg/day) of 22800 ± 8860 ng/mL, a Cmax ([2]; MPA Cmax, mean ± SD, CsA + MMF, MMF 3000 mg/day, CsA 120–180 mg/day) of 19000 ± 5390 ng/mL and a Cmax ([2]; MPA Cmax, mean ± SD, CsA + MMF, MMF 3000 mg/day, CsA 180–240 mg/day) of 22800 ± 8120 ng/mL. The Cmax ([2]; MPA Cmax, mean ± SD, CsA + MMF, MMF 3000 mg/day, CsA 240–300 mg/day) was 21200 ± 8770 ng/mL, the “MPA AUC(0–12) higher with MMF + EVR than with MMF + CsA” value ([2]; medium MMF dose (2000 mg)) was 43% and the “Patients with MPA AUC outside the therapeutic window range” value ([2]; MMF + CsA) was 31.3%. The “Patients with MPA AUC outside the therapeutic window range” value ([2]; MMF + EVR) was 47.00% and the “Patients with MPA AUC outside the therapeutic window range” value ([2]; all study patients) was 34%.
